Test results reported in PubChem BioAssay (NCI).
In brackets after ≈: the same amount, converted by molar mass.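 Grown in 96-well plates, cells were treated for 48 hours with each compound at five concentrations. Insufficient inhibition: endpoint recorded as highest concentration tested. GI50 is the concentration that inhibits growth by half. Definition used: TGI = concentration required for complete inhibition of growth.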

What was measured:
Assay in all cases: NCI-60 cell line screen, 48 h
ACHN renal = system: ACHN renal
M14 melanoma = system: M14 melanoma
NCI-H522 lung = system: NCI-H522 lung
BT-549 breast = system: BT-549 breast
SK-MEL-5 melanoma = system: SK-MEL-5 melanoma
MDA-N = system: MDA-N
T-47D breast = system: T-47D breast
XF 498 CNS = system: XF 498 CNS
HOP-18 NSCLC = system: HOP-18 NSCLC
DLD-1 colon = system: DLD-1 colon
SNB-78 CNS = system: SNB-78 CNS
KM20L2 colon = system: KM20L2 colon
DMS 273 small cell lung = system: DMS 273 small cell lung
DMS 114 small cell lung = system: DMS 114 small cell lung
LXFL 529 NSCLC = system: LXFL 529 NSCLC

Compound	TGI (ACHN renal)	TGI (M14 melanoma)	TGI (NCI-H522 lung)	TGI (BT-549 breast)	TGI (SK-MEL-5 melanoma)	TGI (MDA-N)	TGI (T-47D breast)	also measured
c1ccc(-c2c(-c3ccccc3)[n+](Cc3ccc4ccccc4c3)c(-c3ccc(-c4nc5ccccc5s4)cc3)n2Cc2ccc3ccccc3c2)cc1	0.378 µM							GI50 (ACHN renal): 0.178 µM
COC(=O)C(Cc1cn(C(C)n2cc(CC(NC(C)=O)C(=O)OC)c3ccccc32)c2ccccc12)NC(C)=O (centres undefined)		> 100 µM	> 100 µM	> 100 µM	> 100 µM	> 100 µM		
O=C1NN(C2=NNC3(C(=O)N2)c2ccccc2-c2ccccc23)C(c2ccccc2)=N/C1=C/c1ccc(Cl)cc1	> 150 µg/mL	> 150 µg/mL		> 150 µg/mL	> 150 µg/mL		149 µg/mL	GI50 (M14 melanoma): 59.8 µg/mL (≈ 110 µM); GI50 (BT-549 breast): 150 µg/mL (≈ 275 µM); GI50 (T-47D breast): 13.4 µg/mL (≈ 24.6 µM); GI50 (SK-MEL-5 melanoma): 46.4 µg/mL (≈ 85.1 µM); GI50 (ACHN renal): 50.4 µg/mL
O=C(O)c1nc2ccc(C(F)(F)F)cc2[nH]c1=O	> 100 µM	> 100 µM	> 100 µM	> 100 µM	> 100 µM	> 100 µM	> 100 µM	
CN(/N=C1\C(=O)Nc2ccccc21)c1ccccc1	> 100 µM	> 100 µM	> 100 µM		> 100 µM	> 100 µM	> 100 µM	
CN(C)CCNC(=O)c1cccc2c1Nc1ccccc1S2					26.3 µM			TGI (XF 498 CNS): 25.3 µM; TGI (HOP-18 NSCLC): 24.4 µM; TGI (DLD-1 colon): 29.7 µM; TGI (SNB-78 CNS): 27.7 µM; TGI (KM20L2 colon): 29.9 µM; TGI (DMS 273 small cell lung): 29.3 µM; TGI (DMS 114 small cell lung): 20 µM
CO/N=C1\CC(NC(=O)C(F)(F)F)c2ccsc21 (centres undefined)		> 100 µM		> 100 µM	> 100 µM	> 100 µM	> 100 µM	
CC(=O)NNc1nc(C)c(C(=O)NNC(=O)C(=O)Nc2ccc([N+](=O)[O-])cc2[N+](=O)[O-])s1	> 100 µM	> 100 µM	> 100 µM		> 100 µM			TGI (XF 498 CNS): > 100 µM; TGI (DLD-1 colon): > 100 µM; TGI (SNB-78 CNS): > 100 µM; TGI (KM20L2 colon): > 100 µM; TGI (DMS 273 small cell lung): > 100 µM; TGI (DMS 114 small cell lung): > 100 µM; TGI (LXFL 529 NSCLC): > 100 µM
O=c1oc2ccccc2c(O)c1Cc1ccc(Cc2c(O)c3ccccc3oc2=O)cc1		> 100 µM		> 100 µM	> 100 µM	> 100 µM	> 100 µM	
